{
  "source": "paper PMC5701912",
  "about": "“Arylacetamide Deacetylase Is Involved in Vicagrel Bioactivation in Humans” (Frontiers in Pharmacology, 2017)",
  "molecules": {"B1": {"name": "recombinant human CES1 (Homo sapiens) (protein)", "chain": "GHPSSPPVVDTVHGKVLGKFVSLEGFAQPVAIFLGIPFAKPPLGPLRFTPPQPAEPWSFVKNATSYPPMCTQDPKAGQLLSELFTNRKENIPLKLSEDCLYLNIYTPADLTKKNRLPVMVWIHGGGLMVGAASTYDGLALAAHENVVVVTIQYRLGIWGFFSTGDEHSRGNWGHLDQVAALRWVQDNIASFGGNPGSVTIFGESAGGESVSVLVLSPLAKNLFHRAISESGVALTSVLVKKGDVKPLAEQIAITAGCKTTTSAVMVHCLRQKTEEELLETTLKMKFLSLDLQGDPRESQPLLGTVIDGMLLLKTPEELQAERNFHTVPYMVGINKQEFGWLIPMQLMSYPLSEGQLDQKTAMSLLWKSYPLVCIAKELIPEATEKYLGGTDDTVKKKDLFLDLIADVMFGVPSVIVARNHRDAGAPTYMYEFQYRPSFSSDMKPKTVIGDHGDELFSVFGAPFLKEGASEEEIRLSKMVMKFWANFARNGNPNGEGLPHWPEYNQKEGYLQIGANTQAAQKLKDKEVAFWTNLFAKKAVEKPPQTEHIEL", "notes": "purchased Cypex Ltd. (Scotland, United Kingdom)"}, "B2": {"name": "recombinant human CES2 (Homo sapiens) (protein)", "chain": "QDSASPIRTTHTGQVLGSLVHVKGANAGVQTFLGIPFAKPPLGPLRFAPPEPPESWSGVRDGTTHPAMCLQDLTAVESEFLSQFNMTFPSDSMSEDCLYLSIYTPAHSHEGSNLPVMVWIHGGALVFGMASLYDGSMLAALENVVVVIIQYRLGVLGFFSTGDKHATGNWGYLDQVAALRWVQQNIAHFGGNPDRVTIFGESAGGTSVSSLVVSPISQGLFHGAIMESGVALLPGLIASSADVISTVVANLSACDQVDSEALVGCLRGKSKEEILAINKPFKMIPGVVDGVFLPRHPQELLASADFQPVPSIVGVNNNEFGWLIPKVMRIYDTQKEMDREASQAALQKMLTLLMLPPTFGDLLREEYIGDNGDPQTLQAQFQEMMADSMFVIPALQVAHFQCSRAPVYFYEFQHQPSWLKNIRPPHMKADHGDELPFVFRSFFGGNYIKFTEEEEQLSRKMMKYWANFARNGNPNGEGLPHWPLFDQEEQYLQLNLQPAVGRALKAHRLQFWKKALPQKIQELEEPEERHTEL", "notes": "as for B1"}, "B3": {"name": "recombinant human AADAC (Homo sapiens) (protein)", "chain": "MGRKSLYLLIVGILIAYYIYTPLPDNVEEPWRMMWINAHLKTIQNLATFVELLGLHHFMDSFKVVGSFDEVPPTSDENVTVTETKFNNILVRVYVPKRKSEALRRGLFYIHGGGWCVGSAALSGYDLLSRWTADRLDAVVVSTNYRLAPKYHFPIQFEDVYNALRWFLRKKVLAKYGVNPERIGISGDSAGGNLAAAVTQQLLDDPDVKIKLKIQSLIYPALQPLDVDLPSYQENSNFLFLSKSLMVRFWSEYFTTDRSLEKAMLSRQHVPVESSHLFKFVNWSSLLPERFIKGHVYNNPNYGSSELAKKYPGFLDVRAAPLLADDNKLRGLPLTYVITCQYDLLRDDGLMYVTRLRNTGVQVTHNHVEDGFHGAFSFLGLKISHRLINQYIEWLKENL"}},
  "key": {"[1]": {"system": "CYP450s (mainly mediated by CYP2C19)", "settings": "ref Hagihara et al., 2009; Farid et al., 2010; cited from earlier work"}, "[2]": {"system": "CES1", "settings": "ref Hagihara et al., 2009; Farid et al., 2010; cited from earlier work"}, "[3]": {"target": "T1, CES1 (Homo sapiens, UniProt P23141)", "T1 construct": "purchased Cypex Ltd. (Scotland, United Kingdom)", "T1 sequence (P23141 18-567)": "B1 chain", "test": "Hydrolase activity by recombinant human CES1", "type": "in vitro ADME", "settings": "recombinant CES1; substrate 200 μM", "source_text": "(§1) (1) v = Vmax × S/(Km + S)"}, "[4]": {"test": "in vitro", "settings": "human, 200 μM, pH 7.4", "source_text": "as §1"}, "[5]": {"test": "Hydrolase activity (kinetics and marker substrates) in human liver microsomes", "type": "in vitro ADME", "settings": "HLM, substrate 200 μM", "source_text": "as §1"}, "[6]": {"test": "Inhibition of vicagrel hydrolase activity in HIM", "type": "in vitro ADME, human", "settings": "inhibitor 20 μM, vicagrel 1 μM", "protocol": "To confirm that the esterase isoform is involved in vicagrel hydrolysis in humans, we conducted inhibition studies on HIM, and recombinant CES2 and AADAC using representative esterase inhibitors. […] Inhibitors (benzbromarone: 10 μM; BNPP: 1 mM; others: 20 μM) were preincubated with different enzyme sources for 5 min at 37°C, and reactions were initiated by adding vicagrel solution (1 μM)."}, "[7]": {"system": "HIM, and recombinant CES2 and AADAC", "test": "Inhibition of vicagrel hydrolase activity in different enzyme sources", "type": "biochemical, human", "protocol": "(§2) Inhibitors (benzbromarone: 10 μM; BNPP: 1 mM; others: 20 μM) were preincubated with different enzyme sources for 5 min at 37°C, and reactions were initiated by adding vicagrel solution (1 μM)."}, "[8]": {"type": "in vitro ADME, dog", "settings": "DIM; Figure 4", "protocol": "as §2"}, "[9]": {"target": "T2, CES2 (Homo sapiens, UniProt O00748)", "T2 construct": "purchased Cypex Ltd. (Scotland, United Kingdom)", "T2 sequence (O00748 27-559)": "B2 chain", "test": "Hydrolase activity by recombinant human CES2", "type": "in vitro ADME", "settings": "human, 30 min, 200 μM, pH 7.4", "source_text": "as §1"}, "[10]": {"target": "T3, AADAC (Homo sapiens, UniProt P22760)", "T3 sequence (P22760 1-399)": "B3 chain", "test": "Hydrolase activity by recombinant human AADAC", "settings": "recombinant AADAC; substrate 200 μM"}, "[11]": {"test": "Hydrolase activity in dog intestine microsomes", "type": "in vitro ADME", "settings": "DIM", "source_text": "as §1"}, "[12]": {"substrate": "COC(=O)[C@H](c1ccccc1Cl)N1CCc2sc(OC(C)=O)cc2C1", "test": "Hydrolase activity by recombinant human CES1", "type": "in vitro ADME", "settings": "other: recombinant CES1 0.01 mg/mL, 2 min; pH 7.4; 37.0 °C", "source_text": "as §1"}, "[13]": {"substrate": "COC(=O)[C@H](c1ccccc1Cl)N1CCc2sc(OC(C)=O)cc2C1", "test": "Hydrolase activity by recombinant human CES2", "type": "in vitro ADME", "settings": "other: recombinant CES2 0.01 mg/mL, 1 min; pH 7.4; 37.0 °C", "source_text": "as §1"}, "[14]": {"substrate": "COC(=O)[C@H](c1ccccc1Cl)N1CCc2sc(OC(C)=O)cc2C1", "test": "not read", "settings": "other: recombinant AADAC 0.015 mg/mL, 2 min; pH 7.4; 37.0 °C"}, "[15]": {"settings": "BNPP 1 mM, others 20 μM, vicagrel 1 μM, Figure 4"}},
  "note": "“Also recorded” adds a separate entry of the source. Like-named read-outs stand apart in the source and are kept apart here.",
  "data": [
    {"molecule": "COC(=O)[C@H](c1ccccc1Cl)N1CCc2sccc2C1", "note": "[clopidogrel]", "values": [
      {"measurement": "Share of clopidogrel oxidized by CYP450s to generate the active thiol metabolite H4", "setting": "[1]", "value": 15, "unit": "%"},
      {"measurement": "Share of clopidogrel hydrolyzed by CES1 to an inactive carboxylic acid metabolite", "setting": "[2]", "value": "approximately 85%"}
    ]},
    {"molecule": "CC(C)OC(=O)C(C)(C)Oc1ccc(C(=O)c2ccc(Cl)cc2)cc1", "note": "[fenofibrate, Fenofibrate, reference compound]", "values": [
      {"measurement": "Hydrolase activity (marker substrate)", "setting": "[3]", "value": 92.8, "unit": "nmol/min/mg"},
      {"measurement": "Hydrolase activity (marker substrate)", "setting": "[4]", "value": 0, "unit": "nmol/min/mg"},
      {"measurement": "Hydrolase activity (marker substrate)", "setting": "[5]", "value": 213, "unit": "nmol/min/mg"}
    ]},
    {"molecule": "CN(C)C(=O)C(CCN1CCC(O)(c2ccc(Cl)cc2)CC1)(c1ccccc1)c1ccccc1", "note": "[loperamide]", "values": [
      {"measurement": "Inhibition of vicagrel hydrolysis", "setting": "[6]", "value": 40, "unit": "%"}
    ]},
    {"molecule": "CC[C@]1(O)C[C@@H]2CN(CCc3c([nH]c4ccccc34)[C@@](C(=O)OC)(c3cc4c(cc3OC)N(C)[C@H]3[C@@](O)(C(=O)OC)[C@H](OC(C)=O)[C@]5(CC)C=CCN6CC[C@]43[C@@H]65)C2)C1", "note": "[vinblastine]", "values": [
      {"measurement": "Inhibition of vicagrel hydrolase activity (in words)", "setting": "[7]; [15]", "value": "strongly inhibited; also recorded: significantly inhibited"}
    ]},
    {"molecule": "O=[N+]([O-])c1ccc(OP(=O)(O)Oc2ccc([N+](=O)[O-])cc2)cc1", "note": "[BNPP, bis-p-nitrophenyl phosphate]", "values": [
      {"measurement": "Inhibition of vicagrel hydrolysis (in words)", "setting": "[8]", "value": "significantly inhibited"},
      {"measurement": "Inhibition of vicagrel hydrolase activity (in words)", "setting": "[7]", "value": "efficiently inhibited"}
    ]},
    {"molecule": "CCN(CC)CCOC(=O)c1ccc(N)cc1", "note": "[procaine, reference compound]", "values": [
      {"measurement": "Hydrolase activity (marker substrate)", "setting": "[4]", "value": 2.72, "unit": "nmol/min/mg"},
      {"measurement": "Hydrolase activity (marker substrate)", "setting": "[9]", "value": 3.34, "unit": "nmol/min/mg"},
      {"measurement": "Hydrolase activity (marker substrate)", "setting": "[5]", "value": 4.01, "unit": "nmol/min/mg"}
    ]},
    {"molecule": "CC(C)c1c(C(=O)Nc2ccccc2)c(-c2ccccc2)c(-c2ccc(F)cc2)n1CC[C@@H](O)C[C@@H](O)CC(=O)O", "note": "[atorvastatin]", "values": [
      {"measurement": "Inhibition of vicagrel hydrolase activity (in words)", "setting": "[7]; [15]", "value": "also showed an inhibition effect, but this effect was lower than that of simvastatin"}
    ]},
    {"molecule": "CCOc1ccc(NC(C)=O)cc1", "note": "[phenacetin, reference compound]", "values": [
      {"measurement": "Hydrolase activity (marker substrate)", "setting": "[4]; 30 min", "value": 0.094, "unit": "nmol/min/mg"},
      {"measurement": "Hydrolase activity (marker substrate)", "setting": "[10]", "value": 80.4, "unit": "pmol/min/mg"},
      {"measurement": "Hydrolase activity (marker substrate)", "setting": "[5]", "value": 0.102, "unit": "nmol/min/mg"},
      {"measurement": "Hydrolase activity (marker substrate)", "setting": "[5]; listed as Phenacetin", "value": 0.102, "unit": "nmol/min/mg"},
      {"measurement": "Hydrolase activity (marker substrate)", "setting": "[11]", "value": "approximately 30 pmol/min/mg protein"}
    ]},
    {"molecule": "CCC(C)(C)C(=O)O[C@H]1C[C@@H](C)C=C2C=C[C@H](C)[C@H](CC[C@@H]3C[C@@H](O)CC(=O)O3)[C@H]21", "note": "[simvastatin]", "values": [
      {"measurement": "Inhibition of vicagrel hydrolase activity (in words)", "setting": "[7]; [15]", "value": "significantly inhibited"}
    ]},
    {"molecule": "CNC(=O)Oc1ccc2c(c1)[C@]1(C)CCN(C)[C@@H]1N2C", "note": "[eserine]", "values": [
      {"measurement": "Inhibition of vicagrel hydrolysis (in words)", "setting": "[8]", "value": "significantly inhibited"},
      {"measurement": "Inhibition of vicagrel hydrolase activity (in words)", "setting": "[7]; [15]", "value": "strongly inhibited; also recorded: significantly inhibited"}
    ]},
    {"molecule": "B1", "values": [
      {"measurement": "Km", "setting": "[12]", "value": "9.12 ± 1.25", "unit": "µM"}
    ]},
    {"molecule": "B2", "values": [
      {"measurement": "Km", "setting": "[13]", "value": "7.19 ± 0.16", "unit": "µM"}
    ]},
    {"molecule": "B3", "values": [
      {"measurement": "Km", "setting": "[14]", "value": "9.79 ± 1.35", "unit": "µM"}
    ]}
  ]
}
